Earlier results as cited in patent US7368441B2, “Method of increasing intracellular concentrations of phosphate and increasing the force of muscular contractions” (Aplodan Formulations Ltd., priority 2006, dated 2008).
Like-named read-outs stand apart in the source and are kept apart here.

Columns and labels:
[1] = oral administration, test animals, at 48 hours
[2] = alkaline and acidic solutions
[3] = unaffected in placebo group
[4] = in vitro
[5] = elderly subjects
[6] = clinical trials
[7] = administration in humans
[8] = patients with inadequate coronary blood flow
[9] = in vivo

- 14C radio-labeled compound found in skeletal muscle (Guinea-Pig, intravenous, intramuscular and oral administration): Significant amounts
- duration of more constant level in the body following administration (oral administration): about 15 hours
- time after which level in the body begins to decrease (oral administration): 33 h
- absorption by the intestine [1]: about 60%
- dephosphorylation to creatine ([4]; blood and muscle): less so
- urine levels of creatinine [7]: increases urine levels of creatinine
SMILES: CN(CCOP(=O)(O)O)C(=N)N [2-(carbamimidoyl-methyl-amino)ethoxyphosphonic acid]
- stability in solution [2]: stable in both alkaline and acidic solutions
- hand strength [3]: improved
- dephosphorylation to creatine ([4]; kidney, intestine and liver): dephosphorylated to creatine to some degree
- muscular performance [5]: improved muscular performance
- muscle development and capacity to perform physical activity [6]: improve muscle development and increase the capacity to perform physical activity
- cardiac parameters [8]: improve cardiac parameters
- tolerability / side effects [9]: well tolerated and without side effects
